For two compounds, selectivity ratio, CC50 and IC50 results are on record in ChEMBL document CHEMBL5143580, “Ophiorrhines F and G, Key Biogenetic Intermediates of Ophiorrhine Alkaloids from Ophiorrhiza japonica and Their Immunosuppressant Activities” (J Nat Prod, 2022).

Bounds are passed on as bounds.

Data set [1] can be described thus: Selectivity index, ratio of CC50 for BALB/c mouse Splenocyte to IC50 for Immunosuppressive activity in BALB/c mouse Splenocyte assessed as inhibition of LPS-induced B-cell proliferation. The note with it: splenocytes, read-out: Ratio CC50/IC50. In kind it is toxicity.
The nature of data set [2]: Cytotoxicity in BALB/c mouse Splenocyte assessed as reduction in cell viability incubated for 48 hrs by CCK-8 assay. In kind it is toxicity, cell-based. The conditions noted are these: splenocytes.
Data set [3] in a line: Selectivity index, ratio of CC50 for BALB/c mouse Splenocyte to IC50 for Immunosuppressive activity in BALB/c mouse Splenocyte assessed as inhibition of concanavalin A-induced T-cell proliferation. The conditions noted are these: splenocytes, read-out: Ratio CC50/IC50. It is filed as toxicity.
Data set [4] relates to Splenocyte. Description: Immunosuppressive activity in BALB/c mouse Splenocyte assessed as inhibition of concanavalin A induced T-cell proliferation by [3H]-thymidine incorporation based beta scintillation counter analysis. It is filed as functional.
The test system of data set [5] is Splenocyte. Briefly: Immunosuppressive activity in BALB/c mouse Splenocyte assessed as inhibition of LPS induced B-cell proliferation by [3H]-thymidine incorporation based beta scintillation counter analysis. In kind it is functional.

As to `C=C[C@H]1[C@H](O[C@@H]2O[C@H](CO)[C@@H](O)[C@H](O)[C@H]2O)OC=C(C(=O)OC)[C@H]1CC(=O)c1[nH]c2ccccc2c1CC(=O)NC`, the selectivity ratio in data set [1] is 3.59; in data set [3], below 0.85. Moreover, the CC50 at 48 h in data set [2] came to 170 µM. Moreover, the values for the IC50 in data set [4] and in data set [5] were above 200 µM and 47.4 µM, respectively.

On to `C=C[C@H]1[C@H](O[C@@H]2O[C@H](CO)[C@@H](O)[C@H](O)[C@H]2O)OC=C(C(=O)OC)[C@H]1CC(=O)c1[nH]c2ccccc2c1[C@H](OC)C(=O)NC`, for which the selectivity ratio in data set [1] is above 548; in data set [3], below 1.04. For the same compound, the CC50 at 48 h in data set [2] was 208 µM. The IC50 is above 200 µM in data set [4] and below 0.38 µM in data set [5].
